Among the data in ChEMBL document CHEMBL5465560, “Selectivity Literature for EUbOPEN Chemogenomic Library” (2024) are % of control and % of inhibition values, retold here.

SMILES strings stand for the structures.

Test [1] deals with T1, Serine/threonine-protein kinase DCLK2 (Homo sapiens) (UniProt Q8N568).
T1 sequence (whole entry): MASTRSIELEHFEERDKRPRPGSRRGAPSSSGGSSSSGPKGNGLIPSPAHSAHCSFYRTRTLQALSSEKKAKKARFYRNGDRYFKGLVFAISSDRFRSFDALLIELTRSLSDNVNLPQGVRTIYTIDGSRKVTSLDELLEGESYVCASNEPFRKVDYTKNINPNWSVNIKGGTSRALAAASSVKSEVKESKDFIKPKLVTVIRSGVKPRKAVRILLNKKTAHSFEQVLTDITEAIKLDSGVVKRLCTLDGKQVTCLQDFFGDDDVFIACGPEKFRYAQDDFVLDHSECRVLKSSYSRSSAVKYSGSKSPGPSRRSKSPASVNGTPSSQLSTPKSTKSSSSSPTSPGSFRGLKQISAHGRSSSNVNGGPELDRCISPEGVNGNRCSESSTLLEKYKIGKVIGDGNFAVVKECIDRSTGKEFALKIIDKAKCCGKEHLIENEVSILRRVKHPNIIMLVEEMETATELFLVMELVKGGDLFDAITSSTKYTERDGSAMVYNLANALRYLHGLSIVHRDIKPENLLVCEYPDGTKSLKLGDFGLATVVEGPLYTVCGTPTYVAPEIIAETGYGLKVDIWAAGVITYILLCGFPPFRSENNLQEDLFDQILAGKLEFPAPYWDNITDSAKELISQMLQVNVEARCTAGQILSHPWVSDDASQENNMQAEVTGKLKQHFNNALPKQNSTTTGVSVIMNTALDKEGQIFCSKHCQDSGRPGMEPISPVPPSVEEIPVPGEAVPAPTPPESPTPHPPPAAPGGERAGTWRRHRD
In words: Selectivity interaction (KinomeScan (DiscoverX)) EUB0000092b DCLK2. Conditions: at 10 µM.

The target in test [2] is Calcium/calmodulin-dependent protein kinase type II subunit alpha (Homo sapiens, UniProt Q9UQM7). Nature of the test: Selectivity interaction (ActivX KiNativ screen (kinase selectivity in THP-1 cell lysates)) EUB0000639a CAMK2A. Conditions: lysate. It is filed as subcellular.
In test [3] the target is T2, Cyclin-G-associated kinase (Homo sapiens) (UniProt O14976).
T2 sequence (whole entry): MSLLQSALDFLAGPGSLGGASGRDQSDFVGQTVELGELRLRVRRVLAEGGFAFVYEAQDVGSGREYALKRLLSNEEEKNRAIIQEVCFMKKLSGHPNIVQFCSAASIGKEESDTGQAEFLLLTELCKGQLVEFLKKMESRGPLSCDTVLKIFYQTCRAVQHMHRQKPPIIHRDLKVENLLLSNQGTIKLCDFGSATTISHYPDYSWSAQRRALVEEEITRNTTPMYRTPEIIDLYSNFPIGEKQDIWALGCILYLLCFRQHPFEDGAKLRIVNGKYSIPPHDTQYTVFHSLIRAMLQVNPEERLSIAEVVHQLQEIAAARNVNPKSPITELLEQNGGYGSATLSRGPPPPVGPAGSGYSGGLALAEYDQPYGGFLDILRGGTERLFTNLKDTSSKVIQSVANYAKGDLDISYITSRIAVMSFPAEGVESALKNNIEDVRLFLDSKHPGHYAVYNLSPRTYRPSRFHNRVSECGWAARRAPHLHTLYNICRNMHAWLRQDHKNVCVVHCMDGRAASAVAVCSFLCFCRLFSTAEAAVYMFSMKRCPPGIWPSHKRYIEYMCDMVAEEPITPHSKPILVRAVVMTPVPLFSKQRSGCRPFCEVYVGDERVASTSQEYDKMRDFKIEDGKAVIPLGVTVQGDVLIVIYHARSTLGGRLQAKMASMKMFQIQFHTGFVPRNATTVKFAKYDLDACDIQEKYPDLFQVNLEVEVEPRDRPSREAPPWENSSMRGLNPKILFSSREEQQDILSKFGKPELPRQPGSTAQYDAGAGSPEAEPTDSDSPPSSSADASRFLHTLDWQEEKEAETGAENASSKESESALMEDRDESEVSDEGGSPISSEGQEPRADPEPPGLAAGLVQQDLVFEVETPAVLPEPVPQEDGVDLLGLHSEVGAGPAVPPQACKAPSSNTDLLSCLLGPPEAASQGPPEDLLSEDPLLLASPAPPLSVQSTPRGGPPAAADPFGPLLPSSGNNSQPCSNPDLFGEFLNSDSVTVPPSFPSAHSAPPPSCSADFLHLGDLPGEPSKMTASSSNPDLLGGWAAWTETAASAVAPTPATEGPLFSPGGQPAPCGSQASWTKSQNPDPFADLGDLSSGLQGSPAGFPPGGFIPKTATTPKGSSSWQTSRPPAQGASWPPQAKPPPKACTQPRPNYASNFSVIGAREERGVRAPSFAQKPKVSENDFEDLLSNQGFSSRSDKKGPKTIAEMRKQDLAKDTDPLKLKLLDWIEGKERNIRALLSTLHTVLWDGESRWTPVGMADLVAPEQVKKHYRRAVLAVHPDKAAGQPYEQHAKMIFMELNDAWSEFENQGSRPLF
In words: Selectivity interaction (ActivX KiNativ screen (kinase selectivity in THP-1 cell lysates)) EUB0000639a GAK. It counts as subcellular. To be noted: lysate.

For test [4], the target named is Vascular endothelial growth factor receptor 3 (Homo sapiens, UniProt P35916). In words: Selectivity interaction (KinomeScan (DiscoverX)) EUB0000595a FLT4. Conditions: at 10 µM.
For test [5], the target named is Myosin light chain kinase 2, skeletal/cardiac muscle (Homo sapiens) (UniProt Q9H1R3). Nature of the test: Selectivity interaction (KinomeScan (DiscoverX)) EUB0001619a MYLK2. To be noted: at 1 µM.
Myosin light chain kinase 2, skeletal/cardiac muscle (Homo sapiens), sequence (Q9H1R3 whole entry): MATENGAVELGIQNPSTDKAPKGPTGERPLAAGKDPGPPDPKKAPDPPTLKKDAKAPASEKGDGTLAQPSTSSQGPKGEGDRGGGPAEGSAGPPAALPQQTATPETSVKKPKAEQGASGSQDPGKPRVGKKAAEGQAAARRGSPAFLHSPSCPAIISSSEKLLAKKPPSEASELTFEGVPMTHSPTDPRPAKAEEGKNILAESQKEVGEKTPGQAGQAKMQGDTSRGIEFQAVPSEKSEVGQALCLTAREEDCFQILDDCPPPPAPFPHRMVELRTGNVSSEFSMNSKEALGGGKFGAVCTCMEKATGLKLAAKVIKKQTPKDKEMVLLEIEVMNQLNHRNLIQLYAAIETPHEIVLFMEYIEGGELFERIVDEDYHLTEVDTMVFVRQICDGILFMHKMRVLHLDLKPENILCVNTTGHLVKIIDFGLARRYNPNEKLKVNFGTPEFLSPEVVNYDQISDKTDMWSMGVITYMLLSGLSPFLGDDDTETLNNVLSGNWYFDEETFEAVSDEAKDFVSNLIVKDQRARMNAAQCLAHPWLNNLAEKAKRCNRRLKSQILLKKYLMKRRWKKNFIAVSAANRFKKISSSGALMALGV

Calcium/calmodulin-dependent protein kinase type II subunit alpha, sequence (Q9UQM7 whole entry): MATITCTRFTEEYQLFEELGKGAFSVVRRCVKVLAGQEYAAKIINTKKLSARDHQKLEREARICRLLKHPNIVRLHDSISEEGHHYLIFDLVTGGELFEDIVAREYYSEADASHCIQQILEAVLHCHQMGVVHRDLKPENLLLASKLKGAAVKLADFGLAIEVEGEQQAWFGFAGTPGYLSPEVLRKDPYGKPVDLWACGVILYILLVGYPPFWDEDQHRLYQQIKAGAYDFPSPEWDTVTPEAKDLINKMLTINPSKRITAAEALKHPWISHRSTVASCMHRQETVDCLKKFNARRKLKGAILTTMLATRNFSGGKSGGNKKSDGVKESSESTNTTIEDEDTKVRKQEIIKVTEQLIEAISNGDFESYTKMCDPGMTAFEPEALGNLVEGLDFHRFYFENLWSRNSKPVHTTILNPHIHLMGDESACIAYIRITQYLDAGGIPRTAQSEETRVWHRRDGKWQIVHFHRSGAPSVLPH
Vascular endothelial growth factor receptor 3, sequence (P35916 whole entry): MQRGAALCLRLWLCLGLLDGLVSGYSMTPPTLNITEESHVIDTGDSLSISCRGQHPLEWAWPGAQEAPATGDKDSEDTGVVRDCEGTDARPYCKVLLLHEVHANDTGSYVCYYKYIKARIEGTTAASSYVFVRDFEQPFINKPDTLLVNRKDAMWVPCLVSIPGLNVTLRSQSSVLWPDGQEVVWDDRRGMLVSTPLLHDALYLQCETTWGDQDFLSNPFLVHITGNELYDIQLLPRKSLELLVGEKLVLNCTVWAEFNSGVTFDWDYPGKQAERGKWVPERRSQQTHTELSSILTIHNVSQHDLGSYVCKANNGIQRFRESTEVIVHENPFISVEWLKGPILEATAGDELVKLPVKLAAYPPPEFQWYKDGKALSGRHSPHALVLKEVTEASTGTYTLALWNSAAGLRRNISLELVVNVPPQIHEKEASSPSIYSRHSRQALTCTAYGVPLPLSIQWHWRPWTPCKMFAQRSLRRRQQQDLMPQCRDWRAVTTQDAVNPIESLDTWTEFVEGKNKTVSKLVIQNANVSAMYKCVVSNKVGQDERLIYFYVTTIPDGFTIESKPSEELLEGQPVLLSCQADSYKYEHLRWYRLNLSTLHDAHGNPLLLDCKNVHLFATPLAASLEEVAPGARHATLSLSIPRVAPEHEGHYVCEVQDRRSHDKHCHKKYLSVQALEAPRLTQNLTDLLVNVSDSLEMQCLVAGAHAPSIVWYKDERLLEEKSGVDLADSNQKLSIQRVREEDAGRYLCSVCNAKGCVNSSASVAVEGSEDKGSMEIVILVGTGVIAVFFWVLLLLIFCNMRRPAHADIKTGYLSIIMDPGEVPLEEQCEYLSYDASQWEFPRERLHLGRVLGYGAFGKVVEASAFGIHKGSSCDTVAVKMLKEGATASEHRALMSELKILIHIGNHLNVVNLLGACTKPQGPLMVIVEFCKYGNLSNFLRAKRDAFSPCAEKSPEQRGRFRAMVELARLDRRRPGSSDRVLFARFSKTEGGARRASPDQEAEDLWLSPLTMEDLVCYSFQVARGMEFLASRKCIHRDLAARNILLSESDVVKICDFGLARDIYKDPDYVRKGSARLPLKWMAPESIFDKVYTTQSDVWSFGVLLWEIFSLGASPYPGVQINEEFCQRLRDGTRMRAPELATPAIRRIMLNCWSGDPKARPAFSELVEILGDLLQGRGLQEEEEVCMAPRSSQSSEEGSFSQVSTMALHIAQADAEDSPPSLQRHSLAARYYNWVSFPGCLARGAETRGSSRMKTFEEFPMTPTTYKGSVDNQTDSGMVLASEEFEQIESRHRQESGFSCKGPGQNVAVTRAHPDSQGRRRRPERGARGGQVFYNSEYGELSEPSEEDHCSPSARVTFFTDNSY

Consider `CCC(=O)N1CCN(c2ccc(-n3c(=O)ccc4cnc5ccc(-c6cnc7ccccc7c6)cc5c43)cc2C(F)(F)F)CC1`, for which the % of control in test [1] worked out at 100%.
With `CC[C@@H]1[C@H](F)C(=O)N[C@@H]1COc1nccc2cc(C(N)=O)c(OC)cc12` [ZIMLOVISERTIB], the % of inhibition was found to be 3.3% in test [2] (at 0.01 µM); 16.7% in test [2] (at 0.04 µM); 6.9% in test [2] (at 0.2 µM); 25.1% in test [2] (at 1 µM); 56.2% in test [2] (at 5 µM); 16.2% in test [3] (at 0.01 µM). The % of inhibition was 3.7% in test [3] (at 0.04 µM), -10% in test [3] (at 0.2 µM), 15.7% in test [3] (at 1 µM) and 63.1% in test [3] (at 5 µM).
Turning to `COCC(=O)NC/C=C/c1ccc2ncnc(Nc3ccc(Oc4ccc(C)nc4)c(C)c3)c2c1` [CP-724714], in test [4], the % of control was 98%.
Take `N#Cc1cccc(-c2c[nH]c3ncnc(N4CCOCC4)c23)c1`: the % of control in test [5] is 92%.
